Test results published in patent US10125126B2, “N-cycloalkyl-N-[(heterocyclylphenyl)methylene]-(thio)carboxamide derivatives” (BAYER CROPSCIENCE AG, priority 2012, dated 2018).

How the values were obtained:
Pyrenophora teres = assay: In vivo preventive test on Pyrenophora teres (barley); conditions: barley plants, 14 days after contamination
Procedure: In Vivo Preventive Test on Pyrenophora teres (Barley) […] Barley plants (“Plaisant” variety), sown in starter cups on a 50/50 peat soil pozzolana substrate and grown at 22° C., are treated at the 1 leaf stage (10 cm height) by spraying with the active ingredient prepared as described above. Plants, used as controls, are treated with the mixture of acetone/tween/DMSO/water not containing the active material. After 24 hours, the plants are contaminated by spraying the leaves with an aqueous suspension of Pyrenophora teres spores (12 000 spores per mL). The spores are collected from a 12-day-old culture. […] Grading (% of efficacy) is carried out 14 days after the contamination, in comparison with the control plants.

Puccinia recondita = assay: In vivo preventive test on Puccinia recondita (brown rust on wheat); conditions: wheat plants, 12 days after contamination
Procedure: In Vivo Preventive Test on Puccinia recondita (Brown Rust on Wheat) […] Wheat plants (“Scipion” variety), sown in starter cups on a 50/50 peat soil pozzolana substrate and grown at 22° C., are treated at the 1 leaf stage (10 cm height) by spraying with the active ingredient prepared as described above. Plants, used as controls, are treated with the mixture of acetone/tween/DMSO/water not containing the active material. After 24 hours, the plants are contaminated by spraying the leaves with an aqueous suspension of Puccinia recondita spores (100 000 spores per mL). The spores are collected from an infected plant and are suspended in water containing 2.5 mL/L of Tween 80 at 10%. […] Grading (% of efficacy) is carried out 12 days after the contamination, in comparison with the control plants.

Uromyces appendiculatus = assay: In vivo preventive test on Uromyces appendiculatus (bean rust); conditions: bean plants, 11 days after contamination
Procedure: In Vivo Preventive Test on Uromyces appendiculatus (Bean Rust) […] Bean plants (“Saxa” variety), sown in starter cups on a 50/50 peat soil pozzolana substrate and grown at 24° C., are treated at the 2 leaf stage (9 cm height) by spraying with the active ingredient prepared as described above. Plants, used as controls, are treated with the mixture of acetone/tween/DMSO/water not containing the active material. After 24 hours, the plants are contaminated by spraying the leaves with an aqueous suspension of Uromyces appendiculatus spores (150 000 spores per mL). The spores are collected from infected plants and are suspended in water containing 2.5 mL/L of Tween 80 at 10%. […] Grading (% of efficacy) is carried out 11 days after the contamination, in comparison with the control plants.

Sphaerotheca fuliginea = assay: In vivo preventive test on Sphaerotheca fuliginea (powdery mildew on cucurbits); conditions: gherkin plants, 12 days after contamination
Procedure: In Vivo Preventive Test on Sphaerotheca fuliginea (Powdery Mildew on Cucurbits) […] Gherkin plants (“Vert petit de Paris” variety), sown in starter cups on a 50/50 peat soil-pozzolana substrate and grown at 24° C., are treated at the Z11 cotyledon stage by spraying with the active ingredient prepared as described above. Plants, used as controls, are treated with the mixture of acetone/tween/DMSO/water not containing the active material. After 24 hours, the plants are contaminated by spraying the cotyledons with an aqueous suspension of Sphaerotheca fuliginea spores (100 000 spores per mL). The spores are collected from infected plants. […] Grading (% of efficacy) is carried out 12 days after the contamination, in comparison with the control plants.

[1] = log P by HPLC on a reversed-phase column (C 18), EEC Directive 79/831 Annex V.A8; format: physicochemical; conditions: HPLC on reversed-phase column (C 18), 40° C., 0.1% aqueous formic acid and acetonitrile, linear gradient 10% to 90% acetonitrile
Outline: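 Reversed-phase C18 HPLC at 40° C with a linear 10% to 90% acetonitrile gradient against 0.1% aqueous formic acid. Log P is read from retention time by linear interpolation between successive unbranched alkan-2-ones (C3–C16) of known log P. UV spectra from 200 to 400 nm, taken at chromatographic peak maxima, give lambda-max.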

Septoria tritici = assay: In vivo preventive test on Septoria tritici (wheat); conditions: wheat plants, 24 days after contamination
Procedure: In Vivo Preventive Test on Septoria tritici (Wheat) […] Wheat plants (“Scipion” variety), sown in starter cups on a 50/50 peat soil pozzolana substrate and grown at 22° C., are treated at the 1 leaf stage (10 cm height) by spraying with the active ingredient prepared as described above. Plants, used as controls, are treated with the mixture of acetone/tween/DMSO/water not containing the active material. After 24 hours, the plants are contaminated by spraying the leaves with an aqueous suspension of cryopreserved Septoria tritici spores (500 000 spores per mL). The contaminated wheat plants are incubated for 72 hours at 18° C. and at 100% relative humidity, and then for 21 days at 90% relative humidity. Grading (% of efficacy) is carried out 24 days after the contamination, in comparison with the control plants.

Botrytis cinerea = assay: In vivo preventive test on Botrytis cinerea (grey mould); conditions: 500 ppm of active ingredient; gherkin plants; 4 to 5 days after contamination
Procedure: In Vivo Preventive Test on Botrytis cinerea (Grey Mould) […] Gherkin plants (“Vert petit de Paris” variety), sown in starter cups on a 50/50 peat soil pozzolana substrate and grown at 24° C., are treated at the Z11 cotyledon stage by spraying with the active ingredient prepared as described above. Plants, used as controls, are treated with the mixture of acetone/tween/DMSO/water not containing the active material. After 24 hours, the plants are contaminated by spraying the cotyledons with an aqueous suspension of cryopreserved Botrytis cinerea spores (50 000 spores per mL). The spores are suspended in a nutrient solution composed of 10 g/L of PDB, 50 g/L of D-Fructose, 2 g/L of NH4NO3 and 1 g/L of KH2PO4. The contaminated gherkin plants are incubated at 17° C. and at 90% relative humidity. Grading (% of efficacy) is carried out 4 to 5 days after the contamination, in comparison with the control plants.

| logP [1] | SMILES | Efficacy (Pyrenophora teres; 500 ppm of active ingredient) [%] | Efficacy (Puccinia recondita; 500 ppm of active ingredient) [%] | Efficacy (Uromyces appendiculatus; 500 ppm of active ingredient) [%] | Efficacy (Sphaerotheca fuliginea; 500 ppm of active ingredient) [%] | Efficacy (Septoria tritici; 500 ppm of active ingredient) [%] | Efficacy (Pyrenophora teres; 100 ppm of active ingredient) [%] | Efficacy (Botrytis cinerea) [%] | Efficacy (Sphaerotheca fuliginea; 100 ppm of active ingredient) [%] | Efficacy (Puccinia recondita; 100 ppm of active ingredient) [%] | Efficacy (Uromyces appendiculatus; 100 ppm of active ingredient) [%] | Efficacy (Septoria tritici; 100 ppm of active ingredient) [%] |
| --- | --- | --- | --- | --- | --- | --- | --- | --- | --- | --- | --- | --- |
| 3.83 | CC1CC1N(Cc1ccccc1-c1ccsc1)C(=O)c1c(C(F)F)nn(C)c1F (stereo not shown) [I.86] | 79 | 98 | 97 | 98 | 79 | – | – | – | – | – | – |
| 3.44 | Cn1cc(C(=O)N(Cc2cc(-c3ccco3)ccc2Cl)C2CC2)c(C(F)F)n1 [I.36] | – | – | – | – | – | 71 | – | – | – | – | – |
| 4.14 | COc1ccsc1-c1cc(Cl)ccc1CN(C(=O)c1c(C(F)F)nn(C)c1F)C1CC1 [I.123] | – | 94 | 99 | 100 | 94 | – | 100 | – | – | – | – |
| 3.33 | Cn1nc(C(F)F)c(C(=O)N(Cc2cc(F)ccc2-c2ccoc2)C2CC2)c1F [I.27] | 93 | 100 | 100 | 100 | 80 | – | – | – | – | – | – |
| 3.99 | COc1ccsc1-c1ccc(Cl)cc1CN(C(=O)c1c(C(F)F)nn(C)c1F)C1CC1 [I.121] | 86 | 94 | – | 100 | 80 | – | – | – | – | – | – |
| 2.71 | Cc1ccc(-c2cnn(C)c2)c(CN(C(=O)c2c(C(F)F)nn(C)c2Cl)C2CC2)c1 [I.57] | – | – | – | – | – | 79 | – | – | – | – | – |
| 3.70 | COc1ccsc1-c1cc(F)ccc1CN(C(=O)c1c(C(F)F)nn(C)c1F)C1CC1 [I.122] | – | 98 | 100 | 100 | 100 | – | 100 | – | – | – | – |
| 3.99 | Cn1nc(C(F)F)c(C(=O)N(Cc2cc(Cl)ccc2-c2ccsc2)C2CC2)c1F [I.66] | – | 94 | 100 | 95 | – | – | 91 | – | – | – | – |
| 4.44 | Cn1nc(C(F)F)c(C(=O)N(Cc2ccc(F)cc2-c2csc3ccccc23)C2CC2)c1F [I.158] | – | 81 | 91 | 100 | 98 | – | 100 | – | – | – | – |
| 3.96 | Cn1nc(C(F)F)c(C(=O)N(Cc2cc(-c3ccsc3)ccc2Cl)C2CC2)c1F [I.95] | – | – | – | – | – | 88 | – | 98 | – | – | – |
| 2.86 | Cn1nc(C(F)F)c(C(=O)N(Cc2cc(F)ccc2C2(C)CO2)C2CC2)c1F (stereo not shown) [I.7] | – | – | – | – | – | 97 | – | 94 | 100 | 100 | 100 |
| 4.06 | Cn1nc(C(F)F)c(C(=O)N(Cc2cc(-c3cccs3)ccc2Cl)C2CC2)c1F [I.83] | – | – | – | – | – | 86 | – | 98 | 75 | 80 | – |
| 3.04 | Cc1ccc(C2(C)CO2)c(CN(C(=O)c2c(C(F)F)nn(C)c2F)C2CC2)c1 (stereo not shown) [I.5] | 93 | 98 | – | 100 | 97 | – | – | – | – | – | – |
| 3.37 | Cn1ccc(-c2ccc(F)cc2CN(C(=O)c2c(C(F)F)nn(C)c2F)C2CC2)c1 [I.47] | 71 | – | – | 94 | – | – | – | – | – | – | – |
| 2.52 | Cc1nn(C)c(C)c1-c1ccccc1CN(C(=O)c1c(C(F)F)nn(C)c1F)C1CC1 [I.114] | 79 | 72 | – | 94 | 100 | – | – | – | – | – | – |
| 4.32 | Cc1ccc(-c2coc3ccccc23)c(CN(C(=O)c2c(C(F)F)nn(C)c2F)C2CC2)c1 [I.134] | – | – | – | – | – | 71 | – | 90 | – | 77 | 79 |
| 4.29 | Cn1nc(C(F)F)c(C(=S)N(Cc2ccccc2-c2cccs2)C2CC2)c1F [I.75] | – | 94 | 100 | 90 | 86 | – | 100 | – | – | – | – |
| 3.59 | Cn1cc(C(=O)N(Cc2cc(-c3ccsc3)ccc2Cl)C2CC2)c(C(F)F)n1 [I.93] | – | – | – | – | – | 88 | – | – | – | – | 86 |
